In patent US7517658B2, “Methods for preparing compositions using a SNORF33 receptor” (H. Lundbeck A/S, priority 1999, dated 2009):

Key:
Assay type in all cases: cell-based
rSNORF33 = rSNORF33 (Rattus norvegicus, UniProt Q923Y9); assay: Cl- currents in Xenopus oocytes expressing rSNORF33 and CFTR (voltage clamp); conditions: for EC50: oocytes expressing rSNORF33 and CFTR, -80 mV, mean ± S.E.M., read-out: Calculated EC50, Cl- current
Protocol: Female Xenopus laevis (Xenopus-1, Ann Arbor, Mich.) were anesthetized in 0.2% tricain (3-aminobenzoic acid ethyl ester, Sigma Chemical Corp.) and a portion of ovary was removed using aseptic technique (Quick and Lester, 1994). Oocytes were defolliculated, using 3 mg/ml collagenase (Worthington Biochemical Corp., Freehold, N.J.) in a solution containing 82.5 mM NaCl, 2 mM KCl, 1 mM MgCl2 and 5 mM HEPES, pH 7.5, and injected (Nanoject, Drummond Scientific, Broomall, Pa.) 24 h later with 50-70 nl of individual mRNAs or mRNA mixtures (see below).
Elevation of intracellular cAMP is monitored in oocytes by expression of the cystic fibrosis transmembrane conductance regulator (CFTR) whose Cl^−-selective pore opens in response to phosphorylation by protein kinase A (Riordan, 1993). To prepare RNA transcripts for expression in oocytes, a template was created by PCR using 5′ and 3′ primers derived from the published sequence of the CFTR gene (Riordan, 1993). The 5′ primer included the sequence coding for T7 polymerase so that transcripts could be generated directly from the PCR products without cloning. Oocytes were injected with 10 ng of CFTR mRNA in addition to 10-15 ng mRNA for SNORF33. Electrophysiological recordings were made after a 2-3 day incubation at 18° C.
Dual electrode voltage clamp (“GeneClamp”, Axon Instruments Inc., Foster City, Calif.) was performed using 3 M KCl-filled glass microelectrodes having resistances of 1-3 Mohms. Unless otherwise specified, oocytes were voltage clamped at a holding potential of −80 mV. During recordings, oocytes were bathed in continuously flowing (1-3 ml/min) medium containing 96 mM NaCl, 2 mM KCl, 1.8 mM CaCl2, 1 mM MgCl2, and 5 mM HEPES, pH 7.5 (ND96). […] Experiments were carried out at room temperature. All values are expressed as mean±standard error of the mean.

hSNORF33 = biological target: T1, hSNORF33 (Homo sapiens, UniProt Q96RJ0); assay: Intracellular cAMP release in human SNORF33-transfected COS-7 cells; design: expressed in transfected cells; host or cells: COS-7 (transient); conditions: transiently transfected COS-7 cells; read-out: Mean EC50 ± S.D.M., stimulation of human SNORF33 measured by intracellular cAMP release
T1 sequence (Q96RJ0 1-339): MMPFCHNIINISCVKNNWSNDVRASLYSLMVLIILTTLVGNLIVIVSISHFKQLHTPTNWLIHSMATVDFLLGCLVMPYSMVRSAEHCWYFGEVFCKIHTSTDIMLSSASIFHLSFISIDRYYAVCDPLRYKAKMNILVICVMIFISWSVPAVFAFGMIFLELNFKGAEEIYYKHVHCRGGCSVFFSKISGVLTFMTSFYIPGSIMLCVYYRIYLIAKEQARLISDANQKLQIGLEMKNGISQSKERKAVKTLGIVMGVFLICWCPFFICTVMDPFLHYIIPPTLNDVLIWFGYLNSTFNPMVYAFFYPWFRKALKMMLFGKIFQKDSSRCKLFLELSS
Protocol: (§1) The receptor-mediated stimulation or inhibition of cyclic AMP (cAMP) formation may be assayed in cells expressing the mammalian receptors. Cells are plated in 96-well plates or other vessels and preincubated in a buffer such as HEPES buffered saline (NaCl (150 mM), CaCl2 (1 mM), KCl (5 mM), glucose (10 mM)) supplemented with a phosphodiesterase inhibitor such as 5 mM theophylline, with or without protease inhibitor cocktail (For example, a typical inhibitor cocktail contains 2 μg/ml aprotinin, […] leupeptin, and 10 μg/ml phosphoramidon.) for 20 min at 37° C., in 5% CO2. Test compounds are added with or without […] forskolin and incubated for an additional 10 min at 37° C. The medium is then aspirated and the reaction stopped by the addition of 100 mM HCl or other methods. The plates are stored at 4° C. for 15 min, and the cAMP content in the stopping solution is measured by radioimmunoassay. Radioactivity may be quantified using a gamma counter equipped with data reduction software. Specific modifications may be performed to optimize the assay for the receptor or to alter the detection method of cAMP.
(§2) COS-7 cells were transiently transfected with rSNORF33 gene using the calcium phosphate method and plated in 96-well plates. 48 hours after transfection, cells were washed twice with Dulbecco's phosphate buffered saline (PBS) supplemented with 10 mM HEPES, 10 mM glucose, 5 mM theophylline and 10 μM pargyline and were incubated in the same buffer for 20 min at 37° C., in […] 5% CO2. Test compounds were added and cells were incubated for an additional 10 min at 37° C. The medium was then aspirated and the reaction stopped by the addition of 100 mM HCl. The plates were stored at −20° C. for 2-5 days. For cAMP measurement, plates were thawed and the cAMP content in each well was measured by radioimmunoassay cAMP Scintillation Proximity Assay (Amersham Pharmacia Biotech). Radioactivity was quantified using microbeta Trilux counter (Wallac).

mouse SNORF33 = biological target: T2, mouse SNORF33 (Mus musculus, UniProt Q923Y8); assay: cAMP assay at mouse SNORF33
T2 construct: expressed in transfected cells; host or cells: COS-7 (membranes)
T2 sequence (Q923Y8 whole entry): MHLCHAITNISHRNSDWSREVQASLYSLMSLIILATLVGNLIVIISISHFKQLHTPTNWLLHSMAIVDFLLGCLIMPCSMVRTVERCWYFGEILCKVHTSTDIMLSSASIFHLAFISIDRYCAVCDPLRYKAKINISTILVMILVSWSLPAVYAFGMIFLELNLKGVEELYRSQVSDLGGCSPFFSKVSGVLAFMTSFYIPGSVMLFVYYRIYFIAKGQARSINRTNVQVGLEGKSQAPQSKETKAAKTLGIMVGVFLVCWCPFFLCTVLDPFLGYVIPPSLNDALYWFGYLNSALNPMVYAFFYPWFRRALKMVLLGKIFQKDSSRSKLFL
Protocol: as §1, §2

rSNORF33, sequence (Q923Y9 whole entry): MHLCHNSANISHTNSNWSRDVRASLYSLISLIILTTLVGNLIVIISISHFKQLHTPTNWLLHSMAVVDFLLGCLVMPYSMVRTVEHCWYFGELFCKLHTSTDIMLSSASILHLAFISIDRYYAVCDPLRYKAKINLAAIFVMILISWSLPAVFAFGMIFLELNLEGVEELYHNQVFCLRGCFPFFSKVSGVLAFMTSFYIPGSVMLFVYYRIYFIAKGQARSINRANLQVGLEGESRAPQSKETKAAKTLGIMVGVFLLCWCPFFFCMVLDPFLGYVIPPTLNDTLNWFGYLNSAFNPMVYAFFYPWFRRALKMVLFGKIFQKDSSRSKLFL

Cl- currents elicited (rSNORF33; at 100 μM) | Structure (SMILES) | EC50 (rSNORF33) [nM] | EC50 (hSNORF33) [nM] | Agonism in the cAMP assay (mouse SNORF33) | Cl- currents elicited (rSNORF33; 1-100 μM)
elicited Cl^− currents | NCC(O)c1ccc(O)cc1 (centres unmarked) [Octopamine (OCT), Octopamine] | 635 ± 151 | 4090 ± 95 | – | –
– | NCCc1c[nH]c2ccccc12 [Tryptamine (T), Tryptamine] | 54 ± 10 | 24000 | full agonists | produced this activity
– | NCCc1ccc(O)cc1 [Tyramine (TYR), Tyramine] | 37 ± 4.4 | 214 ± 85 | full agonists | produced this activity
